Assay results reported in patent US9149038B2, “4-amino-6-(heterocyclic)picolinates and 6-amino-2-(heterocyclic)pyrimidine-4-carboxylates and their use as herbicides” (Dow AgroSciences LLC, priority 2013, dated 2015).
Where two headings read alike, the source gives them in different places.

How the values were obtained:
[1] = test system: Key Grass and Sedge Weeds as well as Grass Crops; test: Post-Emergent Test II: postemergent herbicidal activity, visual rating after 14 d (Table 8); type: in vivo; details: post-emergence, 336 h; for pest or weed control at 35 g/ha: 35 g ai/ha; for pest or weed control at 70 g/ha: 70 g ai/ha; for pest or weed control at 140 g/ha: 140 g ai/ha
Method in brief: (§1)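 Greenhouse plants at first or second true leaf stage sprayed with compound in acetone/DMSO-based spray solution with crop oil concentrate and Triton X-155 at 187 L/ha, tested at highest rate and ½× to 1/16× dilutions; solvent blank controls. Injury rated visually 0–100% versus untreated plants after 14 d.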

[2] = test system: Key Broadleaf Weed and Crop Species; test: Post-Emergent Test II: postemergent herbicidal activity, visual rating after 14 d (Table 7); type: in vivo; details: post-emergence, 336 h; for pest or weed control at 35 g/ha: 35 g ai/ha; for pest or weed control at 70 g/ha: 70 g ai/ha; for pest or weed control at 140 g/ha: 140 g ai/ha
Method in brief: as §1

[3] = barnyardgrass (Echinochloa crus-galli), read-out: Visual Growth Reduction (%) 14 Days After Application ECHCG
[4] = giant foxtail (Setaria faberi), read-out: Visual Growth Reduction (%) 14 Days After Application SETFA
[5] = maize, corn (Zea mays), read-out: Visual Growth Reduction (%) 14 Days After Application ZEAMX
[6] = rice (Oryza sativa), read-out: Visual Growth Reduction (%) 14 Days After Application ORYSA
[7] = wheat, spring (Triticum aestivum), read-out: Visual Growth Reduction (%) 14 Days After Application TRZAS
[8] = yellow nutsedge (Cyperus esculentus), read-out: Visual Growth Reduction (%) 14 Days After Application CYPES
[9] = lambsquarters (Chenopodium album), read-out: Visual Growth Reduction (%) 14 Days After Application CHEAL
[10] = oilseed rape, canola (Brassica napus), read-out: Visual Growth Reduction (%) 14 Days After Application BRSNN
[11] = redroot pigweed (Amaranthus retroflexus), read-out: Visual Growth Reduction (%) 14 Days After Application AMARE
[12] = sunflower (Helianthus annuus), read-out: Visual Growth Reduction (%) 14 Days After Application HELAN
[13] = velvetleaf (Abutilon theophrasti), read-out: Visual Growth Reduction (%) 14 Days After Application ABUTH
[14] = wild poinsettia (Euphorbia heterophylla), read-out: Visual Growth Reduction (%) 14 Days After Application EPHHL

Row | Compound | pest or weed control at 35 g/ha [1, 3] [%] | pest or weed control at 70 g/ha [1, 3] [%] | pest or weed control at 140 g/ha [1, 3] [%] | pest or weed control at 35 g/ha [1, 4] [%] | pest or weed control at 70 g/ha [1, 4] [%] | pest or weed control at 140 g/ha [1, 4] [%] | pest or weed control at 35 g/ha [1, 5] [%] | pest or weed control at 70 g/ha [1, 5] [%] | pest or weed control at 140 g/ha [1, 5] [%] | pest or weed control at 35 g/ha [1, 6] [%] | pest or weed control at 70 g/ha [1, 6] [%] | pest or weed control at 140 g/ha [1, 6] [%] | pest or weed control at 35 g/ha [1, 7] [%] | pest or weed control at 70 g/ha [1, 7] [%] | pest or weed control at 140 g/ha [1, 7] [%] | pest or weed control at 35 g/ha [1, 8] [%] | pest or weed control at 70 g/ha [1, 8] [%] | pest or weed control at 140 g/ha [1, 8] [%] | pest or weed control at 35 g/ha [2, 9] [%] | pest or weed control at 70 g/ha [2, 9] [%] | further results
1 | Nc1cc(-c2cc(F)c3c(c2)OC(F)(F)O3)nc(C(=O)O)c1Cl [Compound 44] | 60 to 74 | 60 to 74 | 75 to 84 | 0 to 29 | 0 to 29 | 0 to 29 | 0 to 29 | 0 to 29 | 0 to 29 | 0 to 29 | 0 to 29 | 0 to 29 | 0 to 29 | 0 to 29 | 0 to 29 | 0 to 29 | 0 to 29 | 0 to 29 | 0 to 29 | 0 to 29 | pest or weed control at 140 g/ha [2, 9]: 0 to 29%; pest or weed control at 35 g/ha [2, 10]: 0 to 29%; pest or weed control at 70 g/ha [2, 10]: 0 to 29%; pest or weed control at 140 g/ha [2, 10]: 0 to 29%; pest or weed control at 35 g/ha [2, 11]: 0 to 29%; pest or weed control at 70 g/ha [2, 11]: 0 to 29%; pest or weed control at 140 g/ha [2, 11]: 0 to 29%; pest or weed control at 35 g/ha [2, 12]: 0 to 29%; pest or weed control at 70 g/ha [2, 12]: 0 to 29%; pest or weed control at 140 g/ha [2, 12]: 0 to 29%; pest or weed control at 35 g/ha [2, 13]: 0 to 29%; pest or weed control at 70 g/ha [2, 13]: 0 to 29%; pest or weed control at 140 g/ha [2, 13]: 0 to 29%; pest or weed control at 35 g/ha [2, 14]: 0 to 29%; pest or weed control at 70 g/ha [2, 14]: 0 to 29%; pest or weed control at 140 g/ha [2, 14]: 0 to 29%
2 | COC(=O)c1nc(-c2cc3c(cc2Cl)OC(F)(F)O3)c(F)c(N)c1Cl [Compound 12] | 0 to 29 | 0 to 29 | 0 to 29 | 0 to 29 | 0 to 29 | 0 to 29 | 0 to 29 | 0 to 29 | 0 to 29 | 0 to 29 | 0 to 29 | 0 to 29 | 0 to 29 | 0 to 29 | 0 to 29 | 0 to 29 | 0 to 29 | 0 to 29 | 0 to 29 | 0 to 29 | pest or weed control at 140 g/ha [2, 9]: 0 to 29%; pest or weed control at 35 g/ha [2, 10]: 0 to 29%; pest or weed control at 70 g/ha [2, 10]: 0 to 29%; pest or weed control at 140 g/ha [2, 10]: 0 to 29%; pest or weed control at 35 g/ha [2, 11]: 0 to 29%; pest or weed control at 70 g/ha [2, 11]: 0 to 29%; pest or weed control at 140 g/ha [2, 11]: 0 to 29%; pest or weed control at 35 g/ha [2, 12]: 0 to 29%; pest or weed control at 70 g/ha [2, 12]: 0 to 29%; pest or weed control at 140 g/ha [2, 12]: 0 to 29%; pest or weed control at 35 g/ha [2, 13]: 0 to 29%; pest or weed control at 70 g/ha [2, 13]: 0 to 29%; pest or weed control at 140 g/ha [2, 13]: 60 to 74%; pest or weed control at 35 g/ha [2, 14]: 0 to 29%; pest or weed control at 70 g/ha [2, 14]: 0 to 29%; pest or weed control at 140 g/ha [2, 14]: 0 to 29%
3 | COC(=O)c1nc(-c2ccc3c(c2)OC(F)(F)O3)c(F)c(N)c1Cl [Compound 6] | 95 to 100 | 95 to 100 | 95 to 100 | 60 to 74 | 75 to 84 | 85 to 94 | 85 to 94 | 85 to 94 | 85 to 94 | 30 to 44 | 45 to 59 | 45 to 59 | 45 to 59 | 60 to 74 | 60 to 74 | 95 to 100 | 95 to 100 | 95 to 100 | 95 to 100 | 95 to 100 | pest or weed control at 140 g/ha [2, 9]: 95 to 100%; pest or weed control at 35 g/ha [2, 10]: 75 to 84%; pest or weed control at 70 g/ha [2, 10]: 85 to 94%; pest or weed control at 140 g/ha [2, 10]: 85 to 94%; pest or weed control at 35 g/ha [2, 11]: 75 to 84%; pest or weed control at 70 g/ha [2, 11]: 75 to 84%; pest or weed control at 140 g/ha [2, 11]: 95 to 100%; pest or weed control at 35 g/ha [2, 12]: 85 to 94%; pest or weed control at 70 g/ha [2, 12]: 85 to 94%; pest or weed control at 140 g/ha [2, 12]: 95 to 100%; pest or weed control at 35 g/ha [2, 13]: 95 to 100%; pest or weed control at 70 g/ha [2, 13]: 95 to 100%; pest or weed control at 140 g/ha [2, 13]: 95 to 100%; pest or weed control at 35 g/ha [2, 14]: 85 to 94%; pest or weed control at 70 g/ha [2, 14]: 85 to 94%; pest or weed control at 140 g/ha [2, 14]: 95 to 100%
